Reference: patent US20090131493A1, “SUBSTITUTED BENZIMIDAZOLES FOR TREATMENT OF HISTOMONIASIS” (BAYER HEALTHCARE AG, priority 2005, published 2009)

Columns and labels:
Histomonas meleagridis [1] = assay: Test 2: cage trial, turkey chicks intracloacally infected with Histomonas meleagridis, liver and caecum lesions; format: in vivo; conditions: for Caecum lesions / Liver lesions: scale 0 (no lesions) to 4 (most severe lesions)
Text: (§1) Young, susceptible turkey cock chicks were kept in cages and underwent intracloacal infection in a conventional way at an age of 2 weeks with about 5 log 10 infectious Histomonas meleagridis microorganisms. With the test groups which had been treated with the test compounds, two control groups were kept for comparison purposes (infected/untreated and uninfected/untreated). The test groups consisted of 6 to 10 turkeys. The test compounds, either the compound of the formula (I-1) or (I-2), were administered to the treated test groups 1 day before the infection and 13 days thereafter, with the feed. At the end of the trial, the animals were sacrificed and examined for lesions typical of histomoniasis (“blackhead disease”).

Histomonas meleagridis [2] = assay: Test 1: cage trial, turkey chicks intracloacally infected with Histomonas meleagridis, weight gain; format: in vivo; conditions: 1 day before to 13 days after infection, uninfected/untreated group 4 set at 100%
Text: as §1

histomonas = conditions: cited from earlier work
Heterakis gallinarum = conditions: treatment for 14 days after the time of infection; directed against Heterakis gallinarum, not H. meleagridis; cited from earlier work
[3] = turkey cock; cited from earlier work

## Cc1oc(=O)oc1Cn1c(C(F)(F)F)nc2c(Cl)cc3c(c21)OC(F)(F)C(F)(F)O3 [compound (I-2)]
Histomonas meleagridis [1]; 10 ppm in the feed
  Caecum lesions: 2.1
  Liver lesions: 0
Histomonas meleagridis [1]; 30 ppm in the feed
  Caecum lesions: 0.8
  Liver lesions: 0
Histomonas meleagridis [1]; Test 2, summary in text
  effect on caecum lesions (in words): reduced the caecum lesions
Histomonas meleagridis [2]; 10 ppm in the feed
  Weight gain: 35%

## COC(=O)Nc1nc2ccc(Sc3ccccc3)cc2[nH]1 [fenbendazole]
histomonas
  activity on histomonas in vitro: inadequate activity
Heterakis gallinarum
  activity in vivo: prophylactic activity

## O=[N+]([O-])c1cc([As](=O)(O)O)ccc1O [roxarsone]
[3]
  effect of doubling the dosage: impaired motor functions

## CCCSc1ccc2nc(NC(=O)OC)[nH]c2c1 [albendazole]
histomonas
  activity on histomonas in vitro: inadequate activity
Heterakis gallinarum
  activity in vivo: prophylactic activity

## CCN(Cn1c(C(F)(F)F)nc2c(Br)cc3c(c21)OC(F)(F)C(F)(F)O3)C(=O)OC [compound (I-1)]
Histomonas meleagridis [1]; 5 ppm in the feed
  Caecum lesions: 3.5
  Liver lesions: 0.8
Histomonas meleagridis [1]; 15 ppm in the feed
  Caecum lesions: 3
  Liver lesions: 0
Histomonas meleagridis [2]; 5 ppm in the feed
  Weight gain: 61%
